Structures are written as SMILES. Where a name gives a salt, the structure may show the parent alone.

Assay [1] has as its system contractile response to potassium-induced depolarization on isolated rat aorta. As to the kind of experiment: Calcium inhibitory properties: antagonism of contractile response to potassium-induced depolarization on isolated rat aorta. Also on record: species or system rat (male Wistar). The following applies: percent of maximal contraction before incubation, 60 min. From the text:
It is well established that the depolarization of a smooth muscle membrane by potassium makes the latter permeable to extracellular calcium and induces muscle contraction. Consequently, the measurement of inhibition of the contractile response to depolarization by potassium or the measurement of relaxation of the tonic contraction on potassium depolarization can provide an evaluation of the potency of a compound as an inhibitor of the membrane permeability to Ca^++ ions. The technique used is the following: The aorta is removed from male Wistar rats weighing about 300 g and cut into strips approximately 40 mm long and 3 mm wide. These fragments are placed in a 25 ml isolated organ bath containing modified Krebs-bicarbonate solution (112 mM NaCL; 5 mM KCl; 25 mM NaHCO3; 1 mM KH2 PO4; 1.2 mM MgSO4; 2.5 mM CaCl2; 11.5 mM glucose, made up to 1000 ml with distilled water) maintained at 37° C. and through which a stream of carbon dioxide is passed. The preparation is connected to a force microsensor and the contractile response is recorded after amplification on a recorder. A tension of 2g is applied to the preparation. This latter is maintained in the modified Krebs-bicarbonate solution for 60 minutes, and then contractions are induced by replacing the Krebsbi-carbonate solution by a Krebs-potassium solution (17 mM NaCl; 100 mM KCl; 25 mM NaHCO3; 1 mM KH2 PO4; 1.2 mM MgSO4; 2.5 mM CaCl2; 11.5 mM glucose; made up to 1000 ml with distilled water). When the contractile response of the preparation has become reproducible, a given amount of the compound of the invention is introduced into the bath. Sixty minutes later a new spasm is induced by potassium depolarization. The results obtained on the aorta under investigation are then expressed in percent of the maximal contractional effect before incubation with the test substance. As examples, the following results were obtained, the compounds of formula (1) being in the form of the free base, the hydrochloride, oxalate or fumarate.

For assay [2], the system named is increase in blood pressure induced by epinephrine (anti-α effect). As to the kind of experiment: Anti-α effect: reduction of epinephrine-induced increase in blood pressure in anesthetized atropinized dog. It is filed as in vivo. Set-up: key: +: for a reduction <50%; ++: for a reduction ≥50%; +++: for an almost complete reduction. On the procedure:
The aim of this test is to determine the capacity of the compounds of the invention to reduce the increase in blood pressure induced by epinephrine (anti-αeffect) and the acceleration of the heart rate induced by isoprenaline (anti-βeffect) in the dog previously anesthetized with pentobarbital and atropinized. First, are determined for each dog the dose of epinephrine (between 3 and 10 μg/kg) which causes a reproducible increase in arterial blood pressure of about 133.10^2 Pa and the dose of isoprenaline (1 to 2 μg/kg) which causes a reproducible increase in the heart rate of about 70 beats/minute. The doses of epinephrine and isoprenaline thus determined are injected alternatively every ten minutes and after the two consecutive reference responses have been obtained, a quantity of the test compound is administered by the intravenous route. The percentage reduction of the hypertension caused by the test compound in comparison with the reference hypertension previously obtained (about 100 mm Hg) is recorded. In both cases, the results of the reduction in arterial pressure and heart rate are expressed as follows: […]

Take `CCCCN(CCCC)CCCOc1ccc(S(=O)(=O)c2c(C(C)C)cn3ccccc23)cc1` [B, reference compound]: the “% maximal contractional effect” value in assay [1] (10^-8 M, 0.01 µM) was 61%. Moreover, the Anti-α effect entry in assay [2] (intravenous, 0,5 mg/kg) is “++ (for a reduction ≥50%)”.

`CCCCc1oc2ccc([N+](=O)[O-])cc2c1S(=O)(=O)c1ccc(OCCCN(C)CCc2ccc(OC)c(OC)c2)cc1` [Ex. 1, 2-n-butyl 3-{4-[3-(N-methyl N-3,4-dimethoxy-β-phenethylamino)propoxy]benzenesulfonyl} 5-nitro benzofuran hydrochloride]: the “% maximal contractional effect” value in assay [1] (10^-6 M, 1 µM) is recorded as 45,4%; in assay [1] (10^-7 M, 0.1 µM), 70,1%. The Anti-α effect result in assay [2] (intravenous, 3,23 mg/kg) is “+++”.

`CCCCN(CCCC)CCCOc1ccc(S(=O)(=O)c2c(C(C)C)c3cc(OC)ccc3n2C)cc1.O=C(O)C(=O)O` [Ex. 64, 2-{4-[3-(di-n-butylamino)propoxy]benzenesulfonyl} 3-isopropyl 5-methoxy 1-methyl indole hydrogen oxalate]: the “% maximal contractional effect” value in assay [1] (10^-7 M, 0.1 µM) is on record as 69,3%; in assay [1] (10^-8 M, 0.01 µM), 72,6%; in assay [1] (10^-9 M, 0.001 µM), 93,9%. Besides, the Anti-α effect result in assay [2] (intravenous, 0,5 mg/kg) is listed as “+++”.

Turning to `CCCCN(CCCC)CCCOc1ccc(S(=O)(=O)c2c(C)nn3cccc(C)c23)cc1.O=C(O)C(=O)O` [Ex. 49, 3-{4-[3-(di-n-butylamino)propoxy]benzenesulfonyl} 2,4-dimethyl pyrazolo[1,5-a]pyridine hydrogen oxalate], the “% maximal contractional effect” value in assay [1] (10^-8 M, 0.01 µM) is on record as 62,9%; in assay [1] (10^-9 M, 0.001 µM), 75,7%. For the same molecule, the Anti-α effect entry in assay [2] (intravenous, 0,28 mg/kg) is listed as “+ (for a reduction <50%)”.

For `COc1cc(OC)c(C(C)C)c(S(=O)(=O)c2ccc(OCCCN(C)CCc3ccc(OC)c(OC)c3)cc2)c1.O=C(O)C(=O)O` [Ex.6, 4-[-3(N-methyl N-3,4-dimethoxy-β-phenethylamino)propox]phenyl (2-isopropyl 3,5-dimethoxy phenyl) sulfone oxalate], the “% maximal contractional effect” value in assay [1] (10^-7 M, 0.1 µM) is given as 13,1%; in assay [1] (10^-8 M, 0.01 µM), 63,4%; in assay [1] (10^-9 M, 0.001 µM), 85,7%.

Take `COc1ccc(CCN(C)CCCOc2ccc(S(=O)(=O)c3c(C(C)C)n(C)c4ccc(Cl)cc34)cc2)cc1OC` [Ex. 13, 3-{4-[3-(N-methyl N-3,4-dimethoxy-β-phenethylamino)propoxy]benzenesulfonyl} 5-chloro 2-isopropyl 1-methylindole]: the “% maximal contractional effect” value in assay [1] (10^-7 M, 0.1 µM) is reported as 35,5%; in assay [1] (10^-8 M, 0.01 µM), 79,2%. Besides, in assay [2] (intravenous, 0,6 mg/kg), the Anti-α effect result is listed as “+++”.

On to `CCCCc1oc2ccc(NS(C)(=O)=O)cc2c1S(=O)(=O)c1ccc(OCCCN(C)CCc2ccc(OC)c(OC)c2)cc1` [Ex. 4, 3-{4-[3-(N-methyl N-3,4-dimethoxy-β-phenethylamino)propoxy]benzenesulfonyl} 2-n-butyl 5-methane sulfonamido benzofuran hydrogen oxalate], for which the “% maximal contractional effect” value in assay [1] (10^-6 M, 1 µM) was 49,9%; in assay [1] (10^-7 M, 0.1 µM), 92,7%.

In the case of `CCCCN(CCCC)CCCOc1ccc(S(=O)(=O)c2c(C(C)C)cn3cccc(C)c23)cc1` [Ex. 75, 1-{4-[3-(di-n-butylamino)propoxy]benzenesulfonyl} 2-isopropyl 8-methyl indolizine], the “% maximal contractional effect” value in assay [1] (10^-8 M, 0.01 µM) was 9,7%; in assay [1] (10^-9 M, 0.001 µM), 51,4%; in assay [1] (10^-10 M, 0.0001 µM), 83,8%. Moreover, in assay [2] (intravenous, 0,02 mg/kg), the Anti-α effect entry is recorded as “++ (for a reduction ≥50%)”.

For `CCCCN(CCCC)CCCOc1ccc(S(=O)(=O)c2c(C(C)C)n(C)c3ccc(Cl)cc23)cc1.O=C(O)C(=O)O` [Ex. 44, 1-methyl 2-isopropyl 3-{4-[3-(di-n-butylamino)propoxy]benzenesulfonyl} 5-chloro indole hydrogen oxalate], the “% maximal contractional effect” value in assay [1] (10^-7 M, 0.1 µM) is given as 69,6%; in assay [1] (10^-8 M, 0.01 µM), 85,7%. Moreover, the Anti-α effect entry in assay [2] (intravenous, 1,2 mg/kg) was “++ (for a reduction ≥50%)”.

Consider `COc1ccc(CCN(C)CCCOc2ccc(S(=O)(=O)c3c(C(C)C)cn4c(C)cccc34)cc2)cc1OC` [Ex. 79, 2-Isopropyl 5-methyl 1-{4-[3-(N-methyl N-3,4-dimethoxy-β-phenethylamino)propoxy]benzenesulfonyl}indolizine], for which the “% maximal contractional effect” value in assay [1] (10^-8 M, 0.01 µM) is 29,8%; in assay [1] (10^-9 M, 0.001 µM) it was 77,9%; in assay [1] (10^-10 M, 0.0001 µM), 87,3%. Further, the Anti-α effect entry in assay [2] (intravenous, 0,07 mg/kg) is listed as “+++”.

`CC(C)c1c(S(=O)(=O)c2ccc(OCCCN(C)C3CCCc4ccccc43)cc2)c2cc(Cl)ccc2n1C.O=C(O)C(=O)O` (stereo not shown) [Ex. 47, 1-methyl 2-isopropyl 3-{4-[3-(N-methyl N-1,2,3,4-tetrahydronaphth-1-ylamino)propoxy]benzenesulfonyl} 5-chloro indole hydrogen oxalate]: the “% maximal contractional effect” value in assay [1] (10^-7 M, 0.1 µM) was 75,3%; in assay [1] (10^-8 M, 0.01 µM), 88,3%; in assay [1] (10^-9 M, 0.001 µM) it was 91,4%. Moreover, in assay [2] (intravenous, 6,6 mg/kg), the Anti-α effect result is on record as “++ (for a reduction ≥50%)”.

For the molecule `Cc1nn2cccc(C)c2c1S(=O)(=O)c1ccc(OCCCN(C)C2CCCc3ccccc32)cc1` (stereo not shown) [Ex. 51, 3-{4-[3-(N-methyl N-1,2,3,4-tetrahydronapth-1-ylamino)propoxy]benzenesulfonyl} 2,4-dimethyl pyrazolo[1,5-a]pyridine hydrogen oxalate], the “% maximal contractional effect” value in assay [1] (10^-8 M, 0.01 µM) was 67,1%; in assay [1] (10^-9 M, 0.001 µM), 85%.

As for `COc1ccc(CCNCCCOc2ccc(S(=O)(=O)c3c(C(C)C)c(C)n4ccccc34)cc2)cc1OC` [Ex. 14, 2-isopropyl 3-methyl 1-{4-[3-(N-3,4-dimethoxy-β-phenethylamino)propoxy]benzenesulfonyl}indolizine hydrogen oxalate], the Anti-α effect entry in assay [2] (intravenous, 0,12 mg/kg) is “+++”.

Turning to `CCCCc1oc2ccc(N)cc2c1S(=O)(=O)c1ccc(OCCCN(C)CCc2ccc(OC)c(OC)c2)cc1` [Ex. 3, 5-amino 3-{4-[3-(N-methyl N-3,4-dimethoxy-β-phenethylamino)propoxy]benzenesulfonyl} 2-n-butyl benzofuran dihydrochloride], the Anti-α effect result in assay [2] (intravenous, 1,31 mg/kg) is on record as “+++”.

`COc1ccc(CCN(C)CCCOc2ccc(S(=O)(=O)c3c(C(C)C)c4cc(Cl)ccc4n3C)cc2)cc1OC` [Ex. 59, 2-{4-[3-(N-methyl N-3,4-dimethoxy-β-phenethylamino)propoxy]benzenesulfonyl} 5-chloro 3-isopropyl 1-methyl indole]: the “% maximal contractional effect” value in assay [1] (10^-7 M, 0.1 µM) is recorded as 41,4%; in assay [1] (10^-8 M, 0.01 µM) it was 55,4%; in assay [1] (10^-9 M, 0.001 µM), 68,4%; in assay [1] (10^-10 M, 0.0001 µM) it was 81,5%.

In the case of `COc1ccc(CCN(C)CCCOc2ccc([S+]([O-])c3c(C(C)C)c4cccc(C)c4n3C)cc2)cc1OC` (stereo not drawn) [Ex. 57, (3-isopropyl 1,7-dimethylindol-2-yl)4-[3-(N-methyl N-3,4-dimethoxy-β-phenethylamino)propoxy]phenyl sulfoxide hydrogen oxalate], the “% maximal contractional effect” value in assay [1] (10^-7 M, 0.1 µM) is 56,9%; in assay [1] (10^-8 M, 0.01 µM), 76,4%; in assay [1] (10^-9 M, 0.001 µM) it was 89,9%.

The values above are taken from patent publication US5444056A, “Aminoalkoxyphenyl derivatives, process for their preparation and compositions containing them” (Sanofi, priority 1989, dated 1995).
